The values that follow come from ChEMBL document CHEMBL1667832, “Potent and selective cyclohexyl-derived imidazopyrazine insulin-like growth factor 1 receptor inhibitors with in vivo efficacy” (Bioorg Med Chem Lett, 2011).

Series [1] is described as follows: AUC in mouse at 25 mg/kg, po. In kind it is ADME, organism-based. On the set-up: dose 25 mg/kg, route oral. Particulars: plasma.
Series [2] in a line: Cmax in mouse at 25 mg/kg, po. It counts as ADME, organism-based. On the set-up: dose 25 mg/kg, route oral. Particulars: in vivo.
The nature of series [3]: Oral bioavailability in mouse at 25 mg/kg. It counts as ADME, organism-based. The conditions noted are these: in vivo.
Series [4] is described as follows: Volume of distribution at steady state in mouse at 5 mg/kg, iv. It counts as ADME, organism-based. On the set-up: dose 5 mg/kg, route intravenous. Particulars: in vivo, read-out: Vdss.
Series [5] in a line: Clearance in mouse at 5 mg/kg, iv. It counts as ADME, organism-based. More on the design: dose 5 mg/kg, route intravenous. The conditions noted are these: in vivo.
Series [6] is described as follows: Permeability of the compound at pH 5 by PAMPA. It counts as ADME. Particulars: read-out: permeability. For orientation: The PAMPA barrier holds no transporters, so it reflects passive diffusion.
Series [7] can be described thus: Permeability of the compound at pH 7.4 by PAMPA. In kind it is ADME. The conditions noted are these: read-out: permeability.
A short description of series [8]: Antitumor activity against human GEO cells xenografted in nu/nu CD-1 mouse assessed as tumor growth inhibition at 60 mg/kg, po qd for 14 days. It counts as functional. The conditions noted are these: 336 h, read-out: TGI. (In general: In xenograft studies the graft and the host belong to different species.)
In series [9] the test system is Mus musculus. Description: Toxicity in human GEO cells xenografted nu/nu CD-1 mouse assessed as mortality at 60 mg/kg, po qd for 14 days. Particulars: in vivo, 336 h. It counts as organism-based. On the set-up: dose 60 mg/kg, route oral.
Series [10] has as its system Mus musculus. Description: Toxicity in human GEO cells xenografted nu/nu CD-1 mouse assessed as effect on blood glucose level at 60 mg/kg, po qd for 14 days. More on the design: dose 60 mg/kg, route oral. Particulars: in vivo, 336 h. It counts as organism-based.
Series [11] can be described thus: Genotoxicity in Salmonella Typhimurium by Ames test in presence of S9 fractions. The conditions noted are these: salmonella enterica subsp. enterica serovar typhimurium. In kind it is toxicity, S9 Fraction. Background: The Ames test uses bacterial strains that need an amino acid and regain growth without it when mutated back.
The next series deals with T1, Cytochrome P450 1A2 (Homo sapiens, UniProt P05177).
T1 sequence (P05177 whole entry): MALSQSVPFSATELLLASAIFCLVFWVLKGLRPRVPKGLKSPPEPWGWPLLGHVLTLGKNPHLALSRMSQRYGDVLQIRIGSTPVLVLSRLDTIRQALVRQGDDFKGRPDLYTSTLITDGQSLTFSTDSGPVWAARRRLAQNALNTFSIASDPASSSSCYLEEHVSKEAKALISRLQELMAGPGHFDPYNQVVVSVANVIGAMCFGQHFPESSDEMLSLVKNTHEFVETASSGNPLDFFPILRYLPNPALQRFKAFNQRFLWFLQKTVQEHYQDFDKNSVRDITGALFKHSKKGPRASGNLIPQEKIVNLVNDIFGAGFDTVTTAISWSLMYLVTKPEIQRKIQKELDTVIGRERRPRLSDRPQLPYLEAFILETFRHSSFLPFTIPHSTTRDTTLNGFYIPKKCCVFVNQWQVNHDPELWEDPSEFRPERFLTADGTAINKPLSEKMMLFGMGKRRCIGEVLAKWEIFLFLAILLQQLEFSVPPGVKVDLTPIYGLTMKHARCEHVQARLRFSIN
The series can be described thus: Inhibition of CYP1A2. It counts as ADME.

In a further series the target is Cytochrome P450 2C9 (Homo sapiens, UniProt P11712). Description: Inhibition of CYP2C9. It counts as ADME.
Chain of Cytochrome P450 2C9 (P11712 whole entry): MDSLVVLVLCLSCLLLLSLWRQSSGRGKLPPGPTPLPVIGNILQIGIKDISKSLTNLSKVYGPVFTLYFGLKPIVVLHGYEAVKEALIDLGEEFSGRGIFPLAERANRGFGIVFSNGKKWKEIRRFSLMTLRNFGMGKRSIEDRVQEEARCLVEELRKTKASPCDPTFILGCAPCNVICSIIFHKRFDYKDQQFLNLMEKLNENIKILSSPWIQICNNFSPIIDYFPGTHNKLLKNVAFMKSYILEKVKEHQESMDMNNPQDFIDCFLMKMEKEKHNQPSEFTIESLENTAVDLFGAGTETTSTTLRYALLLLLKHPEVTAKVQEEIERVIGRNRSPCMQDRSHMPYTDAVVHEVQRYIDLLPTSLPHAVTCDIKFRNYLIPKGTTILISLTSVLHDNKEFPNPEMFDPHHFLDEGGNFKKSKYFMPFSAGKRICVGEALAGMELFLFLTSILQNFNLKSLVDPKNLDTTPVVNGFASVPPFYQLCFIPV
The next series addresses Cytochrome P450 2C19 (Homo sapiens, UniProt P33261). The series can be described thus: Inhibition of CYP2C19. In kind it is ADME.
A further series addresses Cytochrome P450 2D6 (Homo sapiens, UniProt P10635). Description: Inhibition of CYP2D6. It counts as ADME.
The nature of series [12]: Physiological stability of the compound in simulated gastric fluids assessed as formation of 4-(8-amino-1-(8-fluoro-2-phenylquinolin-7-yl)imidazo[1,5-a]pyrazin-3-yl)cyclohexanecarboxylic acid at 2 uM. It counts as physicochemical. Particulars: simulated gi fluid.
Series [13] can be described thus: Physiological stability of the compound in simulated intestinal fluids assessed as formation of 4-(8-amino-1-(8-fluoro-2-phenylquinolin-7-yl)imidazo[1,5-a]pyrazin-3-yl)cyclohexanecarboxylic acid at 2 uM. Particulars: simulated gi fluid. It counts as physicochemical.
Another series deals with Cytochrome P450 3A4 (Homo sapiens, UniProt P08684). The series can be described thus: Inhibition of CYP3A4. In kind it is ADME.
Chain of Cytochrome P450 3A4 (P08684 whole entry): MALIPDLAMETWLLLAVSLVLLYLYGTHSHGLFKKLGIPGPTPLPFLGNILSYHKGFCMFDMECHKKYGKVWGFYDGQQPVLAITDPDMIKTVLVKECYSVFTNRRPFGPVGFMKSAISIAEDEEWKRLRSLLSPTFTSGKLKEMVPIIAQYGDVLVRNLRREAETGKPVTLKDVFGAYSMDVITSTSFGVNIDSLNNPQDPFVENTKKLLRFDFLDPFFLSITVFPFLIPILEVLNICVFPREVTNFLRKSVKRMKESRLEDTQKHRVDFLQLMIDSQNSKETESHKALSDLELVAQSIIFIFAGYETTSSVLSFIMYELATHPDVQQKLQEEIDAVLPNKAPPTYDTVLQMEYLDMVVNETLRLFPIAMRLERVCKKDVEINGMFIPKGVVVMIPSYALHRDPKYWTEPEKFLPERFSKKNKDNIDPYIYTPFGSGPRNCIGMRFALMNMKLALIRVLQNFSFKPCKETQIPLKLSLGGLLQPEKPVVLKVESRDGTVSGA
The nature of series [14]: AUC in mouse at 5 mg/kg, po. In kind it is ADME, organism-based. On the set-up: dose 5 mg/kg, route oral. The conditions noted are these: plasma.
The nature of series [15]: Cmax in mouse at 5 mg/kg, po. It counts as ADME, organism-based. Particulars: in vivo. More on the design: dose 5 mg/kg, route oral.
A short description of series [16]: Oral bioavailability in mouse at 5 mg/kg. Particulars: in vivo. It counts as ADME, organism-based.
The nature of series [17]: Volume of distribution at steady state in mouse at 2 mg/kg, iv. Particulars: in vivo, read-out: Vdss. It counts as ADME, organism-based. On the set-up: dose 2 mg/kg, route intravenous.
The nature of series [18]: Clearance in mouse at 2 mg/kg, iv. In kind it is ADME, organism-based. More on the design: dose 2 mg/kg, route intravenous. The conditions noted are these: in vivo.
Series [19] in a line: Physiological stability of the compound in simulated intestinal fluid assessed as formation of 4-(8-amino-1-(8-fluoro-2-phenylquinolin-7-yl)imidazo[1,5-a]pyrazin-3-yl)cyclohexanecarboxylic acid. In kind it is physicochemical. Particulars: simulated gi fluid.

Chain of Cytochrome P450 2C19 (P33261 whole entry): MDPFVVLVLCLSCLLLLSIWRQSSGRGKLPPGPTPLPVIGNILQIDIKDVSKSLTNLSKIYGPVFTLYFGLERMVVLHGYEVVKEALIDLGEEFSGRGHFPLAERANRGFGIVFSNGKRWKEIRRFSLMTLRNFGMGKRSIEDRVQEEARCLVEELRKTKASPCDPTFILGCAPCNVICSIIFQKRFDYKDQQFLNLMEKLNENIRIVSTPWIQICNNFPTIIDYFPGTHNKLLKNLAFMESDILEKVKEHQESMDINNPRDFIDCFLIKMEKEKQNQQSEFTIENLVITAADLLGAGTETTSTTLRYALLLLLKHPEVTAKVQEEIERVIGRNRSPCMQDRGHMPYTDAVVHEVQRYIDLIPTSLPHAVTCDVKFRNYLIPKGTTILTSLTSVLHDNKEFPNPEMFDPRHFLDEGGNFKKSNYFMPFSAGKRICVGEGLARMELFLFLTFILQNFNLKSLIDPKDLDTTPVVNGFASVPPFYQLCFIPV
Chain of Cytochrome P450 2D6 (P10635 whole entry): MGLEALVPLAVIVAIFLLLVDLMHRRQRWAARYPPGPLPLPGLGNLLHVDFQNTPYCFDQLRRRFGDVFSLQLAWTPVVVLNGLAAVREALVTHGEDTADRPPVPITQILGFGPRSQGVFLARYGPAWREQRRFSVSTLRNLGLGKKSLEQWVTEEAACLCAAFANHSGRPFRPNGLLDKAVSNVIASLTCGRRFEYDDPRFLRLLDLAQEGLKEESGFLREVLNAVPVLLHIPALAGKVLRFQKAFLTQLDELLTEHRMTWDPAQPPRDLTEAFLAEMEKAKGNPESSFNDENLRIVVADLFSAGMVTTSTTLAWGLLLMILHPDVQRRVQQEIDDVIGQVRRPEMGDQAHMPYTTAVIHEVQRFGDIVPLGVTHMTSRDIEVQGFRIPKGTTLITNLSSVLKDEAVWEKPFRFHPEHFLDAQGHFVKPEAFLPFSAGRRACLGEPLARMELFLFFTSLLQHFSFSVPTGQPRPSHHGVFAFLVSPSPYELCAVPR

In series [1], `Nc1nccn2c1c(-c1ccc3ccc(-c4ccccc4)nc3c1F)nc2[C@H]1CC[C@H](C(=O)O)CC1` registered an exposure (AUC) of 7970 ng·h/mL. This compound had a Cmax in series [2] of 5500 nM. The bioavailability in series [3] amounted to 51%. For the same compound, in [4], the Vd was 2.8 L/kg. In [5], this compound returned a clearance of 26 mL/min/kg. Moreover, the Papp in [6] and in series [7] was greater than 1000 ×10⁻⁶ cm/s in each case.
In turn, `Nc1nccn2c1c(-c1ccc3ccc(-c4ccccc4)nc3c1F)nc2[C@H]1CC[C@H](C(N)=O)CC1` showed an area under the curve (AUC) in [1] of 3570 ng·h/mL. For the same compound, the peak level in series [2] (Cmax) was 1900 nM. The same compound gave a bioavailability in series [3] of 24%. For the same compound, the Vd in series [4] was found to be 2.6 L/kg. Moreover, the clearance in series [5] is 38 mL/min/kg. In addition, the Papp came to 45 ×10⁻⁶ cm/s in series [6] and 63 ×10⁻⁶ cm/s in series [7].
In series [1], `Nc1nccn2c1c(-c1ccc3ccc(-c4ccccc4)nc3c1F)nc2[C@H]1CC[C@H](C(=O)Nc2nc3ccccc3[nH]2)CC1` had an AUC of 158000 ng·h/mL. Also, the Cmax in series [2] came out at 28000 nM. This compound also had a bioavailability in [3] of 50%. In [4], the Vd is 0.43 L/kg. This compound showed a clearance in series [5] of 1 mL/min/kg. Besides, the Papp in series [6] came to 538 ×10⁻⁶ cm/s; in series [7], 766 ×10⁻⁶ cm/s. Also, the inhibition in vivo at 60 mg/kg in series [8] stood at 98%. Besides, the Activity result (in the series on Mus musculus [9]; with Mus musculus [10]; in series [11]) was “Non-toxic” in each case. For the same compound, the half-inhibitory concentration (IC50) at Cytochrome P450 1A2 is greater than 20 µM; at Cytochrome P450 2C9, 9.8 µM; against Cytochrome P450 2C19, greater than 20 µM; against Cytochrome P450 2D6, greater than 20 µM; against Cytochrome P450 3A4, greater than 20 µM. Also, the Stability entry in series [12] and in series [13] was “Stable” in each case.
In turn, `Nc1nccn2c1c(-c1ccc3ccc(-c4ccccc4)nc3c1F)nc2[C@H]1CC[C@H](CO)CC1` registered an area under the curve (AUC) in series [14] of 100 ng·h/mL. In addition, the Cmax in series [15] stood at 110 nM. Moreover, the bioavailability in [16] worked out at 23%. Besides, the Vd in series [17] was found to be 7 L/kg. Besides, in series [18], the clearance was determined as 197 mL/min/kg. The Papp was 880 ×10⁻⁶ cm/s in series [6] and greater than 1000 ×10⁻⁶ cm/s in [7].
In series [1], `Nc1nccn2c1c(-c1ccc3ccc(-c4ccccc4)nc3c1F)nc2[C@H]1CC[C@H](C(=O)Nc2nncs2)CC1` had an AUC of 297 ng·h/mL. This compound also gave a Cmax in series [2] of 130 nM. Besides, the bioavailability in [3] amounted to 5%. In series [4], the Vd stood at 3.2 L/kg. In series [5], this compound showed a clearance of 73 mL/min/kg. Further, the Papp in series [6] is 73 ×10⁻⁶ cm/s; in series [7] it was 86 ×10⁻⁶ cm/s. Moreover, the Stability result in [19] was “Unstable”.

A word on the AUC: it is concentration integrated over time. A high value points to more exposure. As a reminder, the Cmax is the highest concentration seen after dosing. What is called bioavailability is the share of a dose that reaches the circulation, judged against a reference dose that is usually intravenous. A low value points to poor availability. As a reminder, the clearance is the volume of plasma or blood freed of the substance per unit of time. A high value points to efficient removal. Usually IC50 stands for the point on the concentration scale where inhibition reaches its midpoint. A low value points to greater potency.
